Assay results published in patent publication US20260007684A1, “AMIDE DERIVATIVES FOR INHIBITING NLRP3 AND USES THEREOF” (Ventus Therapeutics U.S., Inc., priority 2023, published 2026).

molecular target: human NLRP3 (Homo sapiens (Human), UniProt Q96P20); experiment: Scintillation Proximity (SPA) NLRP3 Assay: displacement of 3H-MCC950; format: binding; details: SPA IC50, displacement of 3H-MCC950
Sequence (Q96P20 whole entry): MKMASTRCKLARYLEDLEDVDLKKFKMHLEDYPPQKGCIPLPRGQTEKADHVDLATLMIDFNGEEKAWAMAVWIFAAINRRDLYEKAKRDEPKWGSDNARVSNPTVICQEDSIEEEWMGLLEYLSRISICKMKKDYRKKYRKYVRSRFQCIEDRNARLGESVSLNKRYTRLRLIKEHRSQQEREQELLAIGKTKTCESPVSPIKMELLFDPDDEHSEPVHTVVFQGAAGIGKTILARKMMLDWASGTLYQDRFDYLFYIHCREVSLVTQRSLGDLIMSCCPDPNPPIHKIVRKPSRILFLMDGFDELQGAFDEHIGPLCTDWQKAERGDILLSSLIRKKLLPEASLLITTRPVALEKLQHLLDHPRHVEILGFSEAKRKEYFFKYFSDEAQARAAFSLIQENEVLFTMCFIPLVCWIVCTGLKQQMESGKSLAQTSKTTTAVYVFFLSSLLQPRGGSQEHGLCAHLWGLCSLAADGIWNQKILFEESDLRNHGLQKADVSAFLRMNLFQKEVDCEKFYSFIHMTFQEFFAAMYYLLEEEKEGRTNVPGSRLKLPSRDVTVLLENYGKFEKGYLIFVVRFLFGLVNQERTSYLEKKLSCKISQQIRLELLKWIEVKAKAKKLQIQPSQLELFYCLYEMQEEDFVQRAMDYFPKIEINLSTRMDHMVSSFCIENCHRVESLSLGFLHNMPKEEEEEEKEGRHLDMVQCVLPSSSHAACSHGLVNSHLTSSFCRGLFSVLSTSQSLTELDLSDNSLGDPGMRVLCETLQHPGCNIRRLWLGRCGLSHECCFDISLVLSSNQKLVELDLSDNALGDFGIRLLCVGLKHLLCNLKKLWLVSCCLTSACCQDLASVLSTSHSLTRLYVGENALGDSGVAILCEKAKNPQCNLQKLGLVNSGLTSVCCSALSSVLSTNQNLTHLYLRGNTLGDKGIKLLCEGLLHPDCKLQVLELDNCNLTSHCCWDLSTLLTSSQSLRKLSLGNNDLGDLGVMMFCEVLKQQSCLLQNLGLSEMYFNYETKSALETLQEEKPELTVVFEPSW

SMILES	IC50 [µM]
C[C@H]1C[C@H]2CC[C@@H]([C@H](NC(=O)C3(c4ccc(C(F)(F)F)cc4)CC3)C1)N2c1nnn[nH]1 [104G*, N-((1S,2R,4R,6R)-4-methyl-9-(1H-tetrazol-5-yl)-9-azabicyclo[4.2.1]nonan-2-yl)-1-(4-(trifluoromethyl)phenyl)cyclopropane-1-carboxamide]	50 to 100
C[C@H]1C[C@H]2CC[C@@H]([C@@H](NC(=O)C3(c4ccc(C(F)(F)F)cc4)CC3)C1)N2c1nnn[nH]1 [104H*, N-((1S,2S,4R,6R)-4-methyl-9-(1H-tetrazol-5-yl)-9-azabicyclo[4.2.1]nonan-2-yl)-1-(4-(trifluoromethyl)phenyl)cyclopropane-1-carboxamide]	50 to 100
O=C(N[C@H]1CCC[C@H]2CC[C@@H]1N2c1nnn[nH]1)C1(c2ccc(C(F)(F)F)cc2O)CC1 [88D*, N-((1S,2S,6S)-9-(1H-tetrazol-5-yl)-9-azabicyclo[4.2.1]nonan-2-yl)-1-(2-hydroxy-4-(trifluoromethyl)phenyl)cyclopropane-1-carboxamide]	1 to 10
O=C(N[C@@H]1CCC[C@H]2CC[C@@H]1N2c1nnn[nH]1)C1(c2ccc(C3CC3)cc2O)CC1 [93C*, N-((1S,2R,6S)-9-(1H-tetrazol-5-yl)-9-azabicyclo[4.2.1]nonan-2-yl)-1-(4-cyclopropyl-2-hydroxyphenyl)cyclopropane-1-carboxamide]	10 to 50

same assay, conditions: displacement of 3H-MCC950; read-out: SPA IC50

SMILES	IC50 [µM]
COc1cc(F)c(C2(C(=O)N[C@H]3C[C@H](C)[C@H]4CC[C@@H]3N4c3nnn[nH]3)CC2)c(F)c1 (single isomer, unassigned) [102D*]	10 to 50
C[C@H]1C[C@@H](NC(=O)C2(c3ccc(C4CC4(F)F)cc3)CC2)[C@@H]2CC[C@H]1N2c1nnn[nH]1 (single isomer, unassigned) [37C*]	> 100
C[C@@H]1CCN(c2nnn[nH]2)C[C@@H](NC(=O)C2(c3ccc(C(F)(F)F)c(F)c3)CC2)C1 (single isomer, unassigned) [66B*]	1 to 10
C[C@H]1CCN(c2nnn[nH]2)C[C@@H](NC(=O)C2(c3ccc(SC(F)(F)F)cc3)CC2)C1 (single isomer, unassigned) [69D*]	10 to 50
C[C@@H]1CC[C@H](NC(=O)C2(c3ccc(C4CC4)cc3O)CC2)CN(c2nnn[nH]2)C1 (single isomer, unassigned) [91D*]	1 to 10
O=C(NC1CC(C2CC2)CN(c2nnn[nH]2)C1)C1(c2ccc(Cl)cc2)CC1 (single isomer, unassigned) [Rac-13A*/D*, 1-(4-chlorophenyl)-N-(5-cyclopropyl-1-(1H-tetrazol-5-yl)piperidin-3-yl)cyclopropane-1-carboxamide]	1 to 10
C[C@@H]1C[C@H](NC(=O)C2(c3ccc(C4CC4)cc3)CC2)[C@H]2CC[C@@H]1N2c1nnn[nH]1 [81B*, 1-(4-cyclopropylphenyl)-N-((1R,2S,4R,5S)-4-methyl-8-(1H-tetrazol-5-yl)-8-azabicyclo[3.2.1]octan-2-yl)cyclopropane-1-carboxamide]	50 to 100
O=C(N[C@H]1CC[C@@H]2CC[C@H]1N2c1nnn[nH]1)C1(c2ccc(Cl)cc2O)CC1 [75B*, N-((1R,2S,5R)-8-(1H-tetrazol-5-yl)-8-azabicyclo[3.2.1]octan-2-yl)-1-(4-chloro-2-hydroxyphenyl)cyclopropane-1-carboxamide]	1 to 10
Cc1ccc(C2(C(=O)N[C@H]3C[C@H](C)[C@H]4CC[C@@H]3N4c3nnn[nH]3)CC2)cc1 [87D*, N-((1S,2S,4S,5R)-4-methy1-8-(1H-tetrazol-5-yl)-8-azabicyclo[3.2.1]octan-2-yl)-1-(p-tolyl)cyclopropane-1-carboxamide]	> 100
C[C@@H]1C[C@H](NC(=O)C2(c3ccc(OC(F)F)cc3F)CC2)[C@H]2CC[C@@H]1N2c1nnn[nH]1 (stereo in doubt) [101B*, 1-(4-(difluoromethoxy)-2-fluorophenyl)-N-(4-methyl-8-(1H-tetrazol-5-yl)-8-azabicyclo[3.2.1]octan-2-yl)cyclopropane-1-carboxamide]	> 100
C[C@H]1C[C@H](NC(=O)C2(c3ccc(OC(F)F)cc3O)CC2)[C@@H]2CC[C@H]1N2c1nnn[nH]1 [43D*, N-((1S,2S,4S,5R)-4-methy1-8-(1H-tetrazol-5-yl)-8-azabicyclo[3.2.1]octan-2-yl)-1-(4-(difluoromethoxy)-2-hydroxyphenyl)cyclopropane-1-carboxamide]	10 to 50
C[C@@H]1CC[C@@H](NC(=O)C2(c3ccc(Cl)cc3)CC2)CN1c1nnn[nH]1 [Compound 41C, 1-(4-chlorophenyl)-N-[(3R,6R)-6-methyl-1-(1H-tetrazol-5-yl)-3-piperidyl]cyclopropanecarboxamide]	> 100
C[C@@H]1CCN(c2nnn[nH]2)C[C@H](NC(=O)C2(c3ccc(C4CCC4)cc3)CC2)C1 (single isomer, unassigned) [8A*, 1-(4-cyclobutylphenyl)-N-(5-methyl-1-(1H-tetrazol-5-yl)azepan-3-yl)cyclopropane-1-carboxamide]	1 to 10
C[C@H]1CCN(c2nnn[nH]2)C[C@H](NC(=O)C2(c3ccc(C4CCC4)cc3)CC2)C1 (single isomer, unassigned) [8C*, 1-(4-cyclobutylphenyl)-N-(5-methyl-1-(1H-tetrazol-5-yl)azepan-3-yl)cyclopropane-1-carboxamide]	10 to 50
Cc1ccc(C2(C(=O)N[C@@H]3C[C@H](C)[C@H]4CC[C@@H]3N4c3nnn[nH]3)CC2)cc1 [87C*, N-((1S,2R,4S,5R)-4-methy1-8-(1H-tetrazol-5-yl)-8-azabicyclo[3.2.1]octan-2-yl)-1-(p-tolyl)cyclopropane-1-carboxamide]	> 100
C[C@H]1C[C@H](NC(=O)C2(c3ccc(OC(F)(F)F)cc3)CC2)[C@@H]2CC[C@H]1N2c1nnn[nH]1 [82D*, N-((1S,2S,4S,5R)-4-methy1-8-(1H-tetrazol-5-yl)-8-azabicyclo[3.2.1]octan-2-yl)-1-(4-(trifluoromethoxy)phenyl)cyclopropane-1-carboxamide]	> 100
O=C(N[C@@H]1CN(c2nnn[nH]2)CCC(F)(F)C1)C1(c2ccc(Cl)cc2)CC1 (single isomer, unassigned) [53B*]	50 to 100
C[C@H]1CCN(c2nnn[nH]2)C[C@@H](NC(=O)C2(c3ccc(C(F)(F)F)cc3)CC2)C1 (single isomer, unassigned) [61D*]	10 to 50
C[C@H]1CCN(c2nnn[nH]2)C[C@H](NC(=O)C2(c3ccc(C(F)(F)F)c(OC(F)F)c3)CC2)C1 (single isomer, unassigned) [54C*]	> 100

Next, values leading:

IC50 [µM]	SMILES
50 to 100	C[C@H]1CCN(c2nnn[nH]2)C[C@@H](NC(=O)C2(c3ccc(Cl)cc3Cl)CC2)C1 (single isomer, unassigned) [55D*]
1 to 10	C[C@@H]1CCN(c2nnn[nH]2)C[C@@H](NC(=O)C2(c3ccc(OC(F)(F)F)c(F)c3O)CC2)C1 (single isomer, unassigned) [28B*, 1-(3-fluoro-2-hydroxy-4-(trifluoromethoxy)phenyl)-N-(5-methyl-1-(1H-tetrazol-5-yl)azepan-3-yl)cyclopropane-1-carboxamide]
> 100	C[C@H]1CCN(c2nnn[nH]2)C[C@H](NC(=O)C2(c3ccc(C(F)F)cc3)CC2)C1 (single isomer, unassigned) [5C*, 1-(4-(difluoromethyl)phenyl)-N-(5-methyl-1-(1H-tetrazol-5-yl)azepan-3-yl)cyclopropane-1-carboxamide]
1 to 10	C[C@@H]1CCN(c2nnn[nH]2)C[C@@H](NC(=O)C2(c3ccc(C(F)(F)F)cc3F)CC2)C1 (single isomer, unassigned) [68B*]
10 to 50	C[C@@H]1CCN(c2nnn[nH]2)C[C@@H](NC(=O)C2(c3ccc(Cl)c(F)c3)CC2)C1 (single isomer, unassigned) [65B*]
50 to 100	Cc1cc(C2(C(=O)N[C@H]3C[C@H](C)CCN(c4nnn[nH]4)C3)CC2)ccc1C(F)(F)F (single isomer, unassigned) [6B*, N-(5-methyl-1-(1H-tetrazol-5-yl)azepan-3-yl)-1-(3-methyl-4-(trifluoromethyl)phenyl)cyclopropane-1-carboxamide]
10 to 50	C[C@H]1CCN(c2nnn[nH]2)C[C@@H](NC(=O)C2(c3ccc(Cl)cc3)CC2)C1 (single isomer, unassigned) [12D*, 1-(4-chlorophenyl)-N-(5-methyl-1-(1H-tetrazol-5-yl)azepan-3-yl)cyclopropane-1-carboxamide]
> 100	Cc1cc(C2(C(=O)N[C@@H]3C[C@@H](C)CCN(c4nnn[nH]4)C3)CC2)ccc1C(F)(F)F (single isomer, unassigned) [6C*, N-(5-methyl-1-(1H-tetrazol-5-yl)azepan-3-yl)-1-(3-methyl-4-(trifluoromethyl)phenyl)cyclopropane-1-carboxamide]
1 to 10	C[C@H]1CCN(c2nnn[nH]2)C[C@@H](NC(=O)C2(c3ccc(C(F)(F)F)cc3F)CC2)C1 (single isomer, unassigned) [68D*]
1 to 10	CC(C)c1ccc(C2(C(=O)N[C@H]3C[C@H](C)CCN(c4nnn[nH]4)C3)CC2)c(O)c1 (single isomer, unassigned) [27B*, 1-(2-hydroxy-4-isopropylphenyl)-N-(5-methyl-1-(1H-tetrazol-5-yl)azepan-3-yl)cyclopropane-1-carboxamide]
1 to 10	C[C@H]1CCN(c2nnn[nH]2)C[C@@H](NC(=O)C2(c3ccc(C(F)F)cc3O)CC2)C1 (single isomer, unassigned) [30D*, 1-(4-(difluoromethyl)-2-hydroxyphenyl)-N-(5-methyl-1-(1H-tetrazol-5-yl)azepan-3-yl)cyclopropane-1-carboxamide]
1 to 10	Cc1ccc(C2(C(=O)N[C@H]3C[C@H](C)CCN(c4nnn[nH]4)C3)CC2)c(O)c1F (single isomer, unassigned) [22B*, 1-(3-fluoro-2-hydroxy-4-methylphenyl)-N-(5-methyl-1-(1H-tetrazol-5-yl)azepan-3-yl)cyclopropane-1-carboxamide]
50 to 100	CC(C)c1ccc(C2(C(=O)N[C@@H]3C[C@@H](C)CCN(c4nnn[nH]4)C3)CC2)c(O)c1 (single isomer, unassigned) [27C*, 1-(2-hydroxy-4-isopropylphenyl)-N-(5-methyl-1-(1H-tetrazol-5-yl)azepan-3-yl)cyclopropane-1-carboxamide]
1 to 10	C[C@H]1CCN(c2nnn[nH]2)C[C@@H](NC(=O)C2(c3ccc(OC(F)F)c(F)c3)CC2)C1 (single isomer, unassigned) [73D*]
